{"source": "patent US20070148159A1", "about": "“Use of crotoxin as an analgesic - CIP” (priority 2005, published 2007)", "key": {"mice": {"tested_on": "mice", "type": "in vivo, mouse", "conditions": "for inhibition of the activity of Crotoxin: summary statement on antagonist studies"}, "[1]": {"conditions": "cited from earlier work"}, "[2]": {"type": "in vivo", "conditions": "hot-plate model; test end point 180 minutes"}}, "note": "Structures can show the parent of a compound that is named as a salt.", "data": [{"compound": "CN1[C@@H]2CC[C@H]1C[C@@H](OC(=O)C(CO)c1ccccc1)C2", "note": "(stereo partly shown) [Atropine]", "values": [{"measurement": "inhibition of the activity of Crotoxin", "setting": "mice", "result": "failed to inhibit"}]}, {"compound": "CCOC(=O)C1(c2ccccc2)CCN(C)CC1", "note": "[Dolantin, Meperidine hydrochloride]", "values": [{"measurement": "analgesic potency relative to morphine", "setting": "[1]; halved again when given orally rather than parenterally", "result": "one-tenth as potent an analgesic as morphine"}, {"measurement": "duration of activity", "setting": "[1]; in vivo", "result": "2 to 4", "unit": "h"}, {"measurement": "onset of activity", "setting": "[1]; in vivo", "result": "10 to 45", "unit": "min"}, {"measurement": "time of maximal effect on hot-plate response", "setting": "[2]", "result": 30, "unit": "min"}]}, {"compound": "C=CCN1CC[C@]23c4c5ccc(O)c4O[C@H]2C(=O)CC[C@@]3(O)[C@H]1C5", "note": "[Naloxone]", "values": [{"measurement": "effect on Crotoxin-induced analgesia, hotplate test", "setting": "mice; Atropine 0.25-1 mg/kg, Naloxone 1.25-5 mg/kg", "result": "no effect"}, {"measurement": "inhibition of the activity of Crotoxin", "setting": "mice", "result": "failed to inhibit"}]}]}
